Results taken from article PMC6277767, “Broad and Region-Specific Impacts of the Synthetic Cannabinoid CP 55,940 in Adolescent and Adult Female Mouse Brains” (Frontiers in Molecular Neuroscience, 2018).

Test system: CD1 female mouse brain lipidome
Assay: Brain-region lipid levels (HPLC/MS/MS lipidomics) 2 h after single i.p. 3 mg/kg CP 55,940 vs vehicle
Assay type: in vivo
Parameters: N-arachidonoyl phenylalanine level, Mean / N-stearoyl tryptophan level, Mean / N-stearoyl proline level, Mean / N-stearoyl leucine level, Mean / N-stearoyl phenylalanine level, Mean / N-stearoyl serine level, Mean / N-stearoyl methionine level, Mean: unit: moles per gram
Details: thalamus, 3 mg/kg CP 55,940
Experimental: The Bloomington Institutional Animal Care and Use Committee of Indiana University reviewed and approved the animal procedures. Female mice from the CD1 strain were utilized to match our study examining THC’s effects on the brain lipidome ([Leishman et al., 2018]). Mice were given a single i.p. injection of either 3 mg/kg CP or 1:1:18 cremophor:ethanol:saline vehicle (please refer to the section “3 mg/kg CP Is Relevant for Synthetic Cannabinoid Abuse and Has Stronger Effects on the Female Mouse Brain Lipidome During Adolescence” for a justification of dose and use of female mice). Three different age groups were given injections: PND 35 and PND 50 adolescents, and adult mice (PND 113). At least eight mice in each age group received CP and at least eight received vehicle. Matching the THC study time course ([Leishman et al., 2018]), mice were sacrificed via rapid decapitation 2 h after injection. Brains were immediately removed and flash-frozen in liquid nitrogen, and then stored at -80°C until dissections were performed. Brains were dissected on an ice-cold dissection plate into the following regions: STR, HIPP, CER, THAL, CTX, HYP, MID, and STEM. These abbreviations for these brain areas will be used exclusively when discussing the results generated by these specific dissections. Each dissected area was immediately placed in liquid nitrogen and then stored at -80°C until used for lipid extraction.
Tissue extracts were performed as previously described ([Bradshaw et al., 2006]; [Stuart et al., 2013]; [Raboune et al., 2014]; [Leishman et al., 2016a],[b], [2017], [2018]). First, samples were shock frozen in liquid nitrogen, weighed, and transferred to a centrifuge tube. The mass of the largest sample was multiplied by 50 to determine how many milliliters of HPLC-grade methanol (Fisher, Fair Lawn, NJ, United States) to add. Then, samples were spiked with 500 pmol deuterium-labeled NAGly (d8NAGly; Cayman Chemical, Ann Arbor, MI, United States). Samples were placed on ice in darkness for 2 h then individually homogenized and centrifuged at 19,000 × g for 20 min at 20°C. Supernatants were diluted with HPLC water (purified in house) to make a solution of 75% water, 25% supernatant. Lipids were partially purified on C18 solid phase extraction columns (Agilent, Palo Alto, CA, United States). A series of four elutions with 1.5 mL of 60%, 75%, 85%, and 100% methanol were collected ([Stuart et al., 2013]; [Leishman et al., 2016a],[b], [2018]).
As previously described ([Bradshaw et al., 2006]; [Tan et al., 2006]; [Smoum et al., 2010]; [Stuart et al., 2013]; [Tortoriello et al., 2013]; [Raboune et al., 2014]; [Leishman et al., 2016a],[b], [2017], [2018]), samples were analyzed using an Applied Biosystems API 3000 triple quadrupole mass spectrometer with electrospray ionization (Foster City, CA, United States). Using an Agilent XDB-C18 reversed phase analytical column and optimized mobile phase gradients, 20 μL from each elution were chromatographed. Two Shimadzu 10ADvp pumps (Columbia, MD, United States) provided the pressure for gradient elution. Mobile phase A: 20% methanol, 80% water (v/v) and 1 mM ammonium acetate (Sigma, St. Louis, MO, United States). Mobile phase B: 100% methanol, 1 mM ammonium acetate. Every method run began with 0% mobile phase B, reached 100% mobile phase B flowing at 0.2 mL/min, and gradually returned to 0% mobile phase B.
This screening library will be referred to as the lipidome when discussing data from this study. HPLC/MS/MS data were analyzed using Analyst software (Applied Biosystems) ([Bradshaw et al., 2006]; [Tan et al., 2006]; [Stuart et al., 2013]; [Tortoriello et al., 2013]; [Raboune et al., 2014]; [Leishman et al., 2016a],[b], [2017], [2018]). Chromatograms (Supplementary Figure 3) were generated by determining the retention time of analytes from the analytical column with a [M-1] or [M+1] parent peak and a fragmentation peak corresponding to the programmed values. […]

SMILES: CCCCCCC(C)(C)c1ccc([C@@H]2C[C@H](O)CC[C@H]2CCCO)c(O)c1 [CP 55,940]
- N-oleoyl glycine Direction (relative to Veh) (PND 35): ↓
- N-oleoyl glycine Magnitude (x Veh level) (PND 35): 0.91 x Veh level
- N-oleoyl leucine Direction (relative to Veh) (PND 35): ↑
- N-oleoyl leucine Magnitude (x Veh level) (PND 35): 1.27 x Veh level
- N-oleoyl valine Direction (relative to Veh) (PND 35): ↑
- N-oleoyl valine Magnitude (x Veh level) (PND 35): 1.44 x Veh level
- N-palmitoyl GABA Direction (relative to Veh) (PND 35): ↑
- N-palmitoyl GABA Magnitude (x Veh level) (PND 35): 1.21 x Veh level
- N-palmitoyl leucine, Direction (relative to Veh) (PND 35): ↑
- N-palmitoyl leucine, Magnitude (x Veh level) (PND 35): 1.42 x Veh level
- N-palmitoyl phenylalanine Direction (relative to Veh) (PND 35): ↑
- N-palmitoyl phenylalanine Magnitude (x Veh level) (PND 35): 1.35 x Veh level
- N-palmitoyl tyrosine Magnitude (x Veh level) (PND 35): 1.34 x Veh level
- N-palmitoyl tyrosine, Direction (relative to Veh) (PND 35): ↑
- N-palmitoyl valine Direction (relative to Veh) (PND 35): ↑
- N-palmitoyl valine Magnitude (x Veh level) (PND 35): 1.79 x Veh level
- N-stearoyl serine Direction (relative to Veh) (PND 35): ↓
- N-stearoyl serine Magnitude (x Veh level) (PND 35): 0.83 x Veh level
- N-stearoyl tyrosine Direction (relative to Veh) (PND 35): ↓
- N-stearoyl tyrosine Magnitude (x Veh level) (PND 35): 0.81 x Veh level
- N-stearoyl valine Direction (relative to Veh) (PND 35): ↑
- N-stearoyl valine Magnitude (x Veh level) (PND 35): 1.26 x Veh level
- PGE2 Direction (relative to Veh) (PND 35): ↑
- PGE2 Magnitude (x Veh level) (PND 35): 1.16 x Veh level
- phosphoLEA Direction (relative to Veh) (PND 35): ↑
- phosphoLEA Magnitude (x Veh level) (PND 35): 1.24 x Veh level
- 2-arachidonoyl glycerol level, Mean (PND 35 adolescent female mice): 3.59E-10
- 2-linoleoyl glycerol level, Mean (PND 35 adolescent female mice): 1.52E-10
- 2-oleoyl glycerol level, Mean (PND 35 adolescent female mice): 1.68E-09
- 2-palmitoyl glycerol level, Mean (PND 35 adolescent female mice): 5.34E-10
- 6-ketoPGF1α level, Mean (PND 35 adolescent female mice): 1.42E-11
- Arachidonic acid level, Mean (PND 35 adolescent female mice): 2.14E-09
- Linoleic acid level, Mean (PND 35 adolescent female mice): 5.7E-10
- N- stearoyl valine level, Mean (PND 35 adolescent female mice): 1.07E-12
- N-arachidonoyl GABA level, Mean (PND 35 adolescent female mice): 2.62E-11
- N-arachidonoyl alanine level, Mean (PND 35 adolescent female mice): 1.02E-11
- N-arachidonoyl dopamine level, Mean (PND 35 adolescent female mice): BDL
- N-arachidonoyl ethanolamine level, Mean (PND 35 adolescent female mice): 2.8E-11
- N-arachidonoyl glycine level, Mean (PND 35 adolescent female mice): 4.62E-11
- N-arachidonoyl phenylalanine level, Mean (PND 35 adolescent female mice): 1.31E-12
- N-arachidonoyl serine level, Mean (PND 35 adolescent female mice): 6.28E-12
- N-arachidonoyl taurine level, Mean (PND 35 adolescent female mice): 5.99E-11
- N-arachidonoyl tryptophan level, Mean (PND 35 adolescent female mice): BDL
- N-arachidonoyl tyrosine level, Mean (PND 35 adolescent female mice): 7.9E-13
- N-docosahexaenoyl GABA level, Mean (PND 35 adolescent female mice): 2.9E-12
- N-docosahexaenoyl alanine level, Mean (PND 35 adolescent female mice): 4.07E-12
- N-docosahexaenoyl ethanolamine level, Mean (PND 35 adolescent female mice): 4.03E-11
- N-docosahexaenoyl glycine level, Mean (PND 35 adolescent female mice): 1.76E-11
- N-docosahexaenoyl leucine level, Mean (PND 35 adolescent female mice): 8.15E-13
- N-docosahexaenoyl phenylalanine level, Mean (PND 35 adolescent female mice): 1.14E-12
- N-docosahexaenoyl proline level, Mean (PND 35 adolescent female mice): BDL
- N-docosahexaenoyl serine level, Mean (PND 35 adolescent female mice): 2.59E-11
- N-docosahexaenoyl tyrosine level, Mean (PND 35 adolescent female mice): 7.13E-13
- N-docosahexaenoyl valine level, Mean (PND 35 adolescent female mice): 2E-13
- N-linoleoyl GABA level, Mean (PND 35 adolescent female mice): 9.8E-13
- N-linoleoyl alanine level, Mean (PND 35 adolescent female mice): 1.66E-12
- N-linoleoyl ethanolamine level, Mean (PND 35 adolescent female mice): 5.07E-11
- N-linoleoyl glycine level, Mean (PND 35 adolescent female mice): 4.36E-12
- N-linoleoyl leucine level, Mean (PND 35 adolescent female mice): 3.45E-13
- N-linoleoyl methionine level, Mean (PND 35 adolescent female mice): BDL
- N-linoleoyl proline level, Mean (PND 35 adolescent female mice): BDL
- N-linoleoyl serine level, Mean (PND 35 adolescent female mice): 5.67E-11
- N-linoleoyl tryptophan level, Mean (PND 35 adolescent female mice): BDL
- N-linoleoyl tyrosine level, Mean (PND 35 adolescent female mice): BDL
- N-nervonoyl valine level, Mean (PND 35 adolescent female mice): BDL
- N-oleoyl GABA level, Mean (PND 35 adolescent female mice): 5.58E-12
- N-oleoyl alanine level, Mean (PND 35 adolescent female mice): 7.79E-12
- N-oleoyl dopamine level, Mean (PND 35 adolescent female mice): BDL
- N-oleoyl ethanolamine level, Mean (PND 35 adolescent female mice): 1.71E-10
- N-oleoyl glycine level, Mean (PND 35 adolescent female mice): 2.36E-11
- N-oleoyl leucine level, Mean (PND 35 adolescent female mice): 2.09E-12
- N-oleoyl methionine level, Mean (PND 35 adolescent female mice): 1.17E-12
- N-oleoyl phenylalanine level, Mean (PND 35 adolescent female mice): 1.2E-12
- N-oleoyl serine level, Mean (PND 35 adolescent female mice): 3.24E-10
- N-oleoyl tryptophan level, Mean (PND 35 adolescent female mice): 1.87E-13
- N-oleoyl tyrosine level, Mean (PND 35 adolescent female mice): 4.87E-13
- N-oleoyl valine level, Mean (PND 35 adolescent female mice): 9.01E-13
- N-palmitoyl GABA level, Mean (PND 35 adolescent female mice): 1.41E-11
- N-palmitoyl alanine level, Mean (PND 35 adolescent female mice): 1.21E-11
- N-palmitoyl ethanolamine level, Mean (PND 35 adolescent female mice): 8.69E-11
- N-palmitoyl glycine level, Mean (PND 35 adolescent female mice): 4.99E-11
- N-palmitoyl leucine level, Mean (PND 35 adolescent female mice): 4.1E-12
- N-palmitoyl methionine level, Mean (PND 35 adolescent female mice): 1.84E-12
- N-palmitoyl phenylalanine level, Mean (PND 35 adolescent female mice): 2.75E-12
- N-palmitoyl proline level, Mean (PND 35 adolescent female mice): 1.05E-12
- N-palmitoyl serine level, Mean (PND 35 adolescent female mice): 1.05E-10
- N-palmitoyl tryptophan level, Mean (PND 35 adolescent female mice): 4.31E-13
- N-palmitoyl tyrosine level, Mean (PND 35 adolescent female mice): 1.31E-12
- N-palmitoyl valine level, Mean (PND 35 adolescent female mice): 2.65E-12
- N-stearoyl GABA level, Mean (PND 35 adolescent female mice): 1.05E-11
- N-stearoyl alanine level, Mean (PND 35 adolescent female mice): 1.24E-11
- N-stearoyl ethanolamine level, Mean (PND 35 adolescent female mice): 1.97E-11
- N-stearoyl glycine level, Mean (PND 35 adolescent female mice): 2.74E-11
- N-stearoyl leucine level, Mean (PND 35 adolescent female mice): 1.66E-12
- N-stearoyl methionine level, Mean (PND 35 adolescent female mice): 1.9E-12
- N-stearoyl phenylalanine level, Mean (PND 35 adolescent female mice): 2.22E-12
- N-stearoyl proline level, Mean (PND 35 adolescent female mice): 5.08E-13
- N-stearoyl serine level, Mean (PND 35 adolescent female mice): 3.19E-11
- N-stearoyl tryptophan level, Mean (PND 35 adolescent female mice): 1.26E-12
- N-stearoyl tyrosine level, Mean (PND 35 adolescent female mice): 1.15E-13
- Oleic acid level, Mean (PND 35 adolescent female mice): 1.67E-09
- PGE2 level, Mean (PND 35 adolescent female mice): 6.31E-10
- PhosphoLEA level, Mean (PND 35 adolescent female mice): 2.93E-11
